The values that follow come from ChEMBL document CHEMBL1156499, “Tripeptides of RS1 (RSC1A1) inhibit a monosaccharide-dependent exocytotic pathway of Na+-D-glucose cotransporter SGLT1 with high affinity” (J Biol Chem, 2007).

Calls of active or inactive are those of the source. The rule behind the calls is not given here. Peptide text beside a SMILES is read from it.

The target of data set [1] is T1, Sodium/glucose cotransporter 1 (Homo sapiens) (UniProt P13866).
T1 sequence (whole entry): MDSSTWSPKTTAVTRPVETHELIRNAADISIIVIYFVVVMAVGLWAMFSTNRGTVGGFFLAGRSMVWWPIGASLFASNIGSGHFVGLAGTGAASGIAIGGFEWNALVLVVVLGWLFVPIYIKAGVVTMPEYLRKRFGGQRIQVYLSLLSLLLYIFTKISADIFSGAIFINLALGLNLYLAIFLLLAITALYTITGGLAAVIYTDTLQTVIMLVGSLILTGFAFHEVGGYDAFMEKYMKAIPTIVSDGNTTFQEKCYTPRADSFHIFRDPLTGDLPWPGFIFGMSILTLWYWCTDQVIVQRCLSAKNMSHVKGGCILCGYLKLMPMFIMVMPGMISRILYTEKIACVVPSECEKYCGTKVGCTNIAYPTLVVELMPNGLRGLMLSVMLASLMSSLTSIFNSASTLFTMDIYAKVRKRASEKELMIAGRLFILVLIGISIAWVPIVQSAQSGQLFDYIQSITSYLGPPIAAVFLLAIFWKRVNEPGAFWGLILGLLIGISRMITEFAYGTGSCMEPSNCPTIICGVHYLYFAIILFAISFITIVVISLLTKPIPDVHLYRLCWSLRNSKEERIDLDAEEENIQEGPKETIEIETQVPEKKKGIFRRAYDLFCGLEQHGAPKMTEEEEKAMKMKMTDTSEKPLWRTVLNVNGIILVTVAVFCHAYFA
Put plainly: Inhibition of human SGLT1 expressed in xenopus laevis oocyte assessed as inhibition of methyl-alpha-D-[14C]glucopyranoside uptake at 75 pmol after 1 hr relative to control. Set-up: Activity: scale not given: the % may be the effect or the level left.

Data set [2] addresses T1, Sodium/glucose cotransporter 1 (Homo sapiens). Description: Reversal of inhibition of human SGLT1 expressed in xenopus laevis oocyte assessed as inhibition of methyl-alpha-D-[14C]glucopyranoside uptake at 75 pmol after 1 hr in presence of D-glucose relative to control.
In data set [3] the target is T2, Solute carrier family 15 member 1 (Homo sapiens) (UniProt P46059).
T2 sequence (whole entry): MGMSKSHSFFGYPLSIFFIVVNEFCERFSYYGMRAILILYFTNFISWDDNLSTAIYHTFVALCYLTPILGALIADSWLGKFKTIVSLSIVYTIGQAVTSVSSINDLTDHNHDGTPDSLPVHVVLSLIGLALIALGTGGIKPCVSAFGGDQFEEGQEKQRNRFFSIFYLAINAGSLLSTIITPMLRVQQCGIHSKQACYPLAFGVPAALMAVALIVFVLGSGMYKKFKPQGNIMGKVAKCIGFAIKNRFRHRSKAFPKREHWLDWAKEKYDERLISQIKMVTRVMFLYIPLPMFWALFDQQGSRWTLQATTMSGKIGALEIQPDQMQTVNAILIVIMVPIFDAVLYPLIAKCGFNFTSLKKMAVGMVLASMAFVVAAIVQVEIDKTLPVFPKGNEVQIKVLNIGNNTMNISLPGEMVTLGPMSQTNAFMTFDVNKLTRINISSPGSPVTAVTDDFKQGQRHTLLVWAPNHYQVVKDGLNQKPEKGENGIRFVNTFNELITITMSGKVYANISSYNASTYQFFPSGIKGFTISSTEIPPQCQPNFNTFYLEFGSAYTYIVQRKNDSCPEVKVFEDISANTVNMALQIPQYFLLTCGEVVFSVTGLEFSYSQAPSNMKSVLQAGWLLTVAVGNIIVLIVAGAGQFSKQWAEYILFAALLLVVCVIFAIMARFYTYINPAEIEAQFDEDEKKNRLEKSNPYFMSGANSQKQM
Description: Activity of human PepT1 expressed in xenopus laevis oocyte assessed as induction of inward current at 5 mM.

Data set [4] concerns the target T1, Sodium/glucose cotransporter 1 (Homo sapiens). Description: Reversal of inhibition of human SGLT1 expressed in xenopus laevis oocyte by measuring inhibition of methyl-alpha-D-[14C]glucopyranoside uptake after 1 hr assessed concentration required for 50% protective high affinity in presence of 2-deoxyglucose relative to control.
The target is the same in data set [5]. Put plainly: Reversal of inhibition of human SGLT1 expressed in xenopus laevis oocyte by measuring inhibition of methyl-alpha-D-[14C]glucopyranoside uptake after 1 hr assessed concentration required for 50% protective high affinity in presence of methyl-alpha-D-glucopyranoside relative to control.
The target is the same in data set [6]. Description: Reversal of inhibition of human SGLT1 expressed in xenopus laevis oocyte assessed as inhibition of methyl-alpha-D-[14C]glucopyranoside uptake at 75 pmol after 1 hr in presence of D-fructose relative to control.
Data set [7] shares this target. Put plainly: Reversal of inhibition of human SGLT1 expressed in xenopus laevis oocyte assessed as inhibition of methyl-alpha-D-[14C]glucopyranoside uptake at 75 pmol after 1 hr in presence of 2-deoxyglucose relative to control.
Data set [8] has the same target. Description: Reversal of inhibition of human SGLT1 expressed in xenopus laevis oocyte by measuring inhibition of methyl-alpha-D-[14C]glucopyranoside uptake after 1 hr assessed concentration required for 50 % protective high affinity in presence of D-glucose relative to control.
The target is the same in data set [9]. Description: Reversal of inhibition of human SGLT1 expressed in xenopus laevis oocyte assessed as inhibition of methyl-alpha-D-[14C]glucopyranoside uptake at 75 pmol after 1 hr in presence of methyl-alpha-D-glucopyranoside relative to control.
Data set [10] relates to Small intestine. Put plainly: Decrease of D-glucose absorption in perfused rat small intestine at 15 mM relative to control. Format: functional. On the set-up: scale not given: the % may be the effect or the level left.
Substrate in data set [11]: NC(=O)CC[C@H](N)C(=O)N[C@@H](CO)C(=O)N1CCC[C@H]1C(=O)O
Description: Activity of human PepT1 expressed in xenopus laevis oocyte assessed as induction of inward current.

With `NC(=O)CC[C@H](N)C(=O)N[C@@H](CO)C(=O)N1CCC[C@H]1C(=O)O` (H-Gln-Ser-Pro-OH), the outcome in data set [1], in data set [2], in [3], in [6], in data set [7] and in [9] was Active. The Activity stood at 11.9 µM in [4], 53 µM in data set [5], 30 µM in data set [8] and 30% in [10].
`CC(=O)N1CCC[C@H]1C(=O)N[C@H](C(=O)N[C@@H](CCC(N)=O)C(=O)O)[C@@H](C)O` (Ac-Pro-Thr-Gln-OH): the result in data set [1] was Active.
Still for that read-out and setting: with `CC(=O)N1CCC[C@H]1C(=O)N[C@@H](CC(C)C)C(=O)N[C@@H](CCC(N)=O)C(=O)O` (Ac-Pro-Leu-Gln-OH) the entry was “Active”; with `CC(=O)N1CCC[C@H]1C(=O)NCC(=O)N[C@@H](CCC(N)=O)C(=O)O` (Ac-Pro-Gly-Gln-OH), “Active”; with `CC(=O)N[C@@H](CCC(N)=O)C(=O)N[C@@H](CCC(=O)O)C(=O)N1CCC[C@H]1C(=O)O` (Ac-Gln-Glu-Pro-OH), “Active”.
Consider `CC(=O)N[C@@H](CCC(N)=O)C(=O)N[C@@H](CS)C(=O)N1CCC[C@H]1C(=O)O` (Ac-Gln-Cys-Pro-OH), for which, in [1], the outcome was inactive. Further, the result in data set [3] was Active.
Regarding `CC(=O)N1CCC[C@H]1C(=O)N1CCC[C@H]1C(=O)N[C@@H](CCC(N)=O)C(=O)O` (Ac-Pro-Pro-Gln-OH), the result in [1] was Active.
For the molecule `NCC(=O)N[C@@H](CCC(N)=O)C(=O)O` (H-Gly-Gln-OH), the outcome in data set [3] was Active.
For `CC(=O)N1CCC[C@H]1C(=O)N[C@@H](CO)C(=O)N[C@@H](CCC(N)=O)C(=O)O` (Ac-Pro-Ser-Gln-OH), the Activity in [1] was 44%.
As to `NC(=O)CC[C@H](N)C(=O)N[C@@H](CS)C(=O)N1CCC[C@H]1C(=O)O` (H-Gln-Cys-Pro-OH), the result in data set [1], in [2], in data set [6], in data set [7] and in data set [9] was Active. In addition, the Activity turned out to be 11.9 µM in data set [4] and 53 µM in [5].
Consider Ac-SVQPCQENQ-OH, for which the inhibition in data set [1] stood at 55%.

B1: Solute carrier family 15 member 1 (Homo sapiens), P46059 (protein)
chain: MGMSKSHSFFGYPLSIFFIVVNEFCERFSYYGMRAILILYFTNFISWDDNLSTAIYHTFVALCYLTPILGALIADSWLGKFKTIVSLSIVYTIGQAVTSVSSINDLTDHNHDGTPDSLPVHVVLSLIGLALIALGTGGIKPCVSAFGGDQFEEGQEKQRNRFFSIFYLAINAGSLLSTIITPMLRVQQCGIHSKQACYPLAFGVPAALMAVALIVFVLGSGMYKKFKPQGNIMGKVAKCIGFAIKNRFRHRSKAFPKREHWLDWAKEKYDERLISQIKMVTRVMFLYIPLPMFWALFDQQGSRWTLQATTMSGKIGALEIQPDQMQTVNAILIVIMVPIFDAVLYPLIAKCGFNFTSLKKMAVGMVLASMAFVVAAIVQVEIDKTLPVFPKGNEVQIKVLNIGNNTMNISLPGEMVTLGPMSQTNAFMTFDVNKLTRINISSPGSPVTAVTDDFKQGQRHTLLVWAPNHYQVVKDGLNQKPEKGENGIRFVNTFNELITITMSGKVYANISSYNASTYQFFPSGIKGFTISSTEIPPQCQPNFNTFYLEFGSAYTYIVQRKNDSCPEVKVFEDISANTVNMALQIPQYFLLTCGEVVFSVTGLEFSYSQAPSNMKSVLQAGWLLTVAVGNIIVLIVAGAGQFSKQWAEYILFAALLLVVCVIFAIMARFYTYINPAEIEAQFDEDEKKNRLEKSNPYFMSGANSQKQM
B1: the Km in [11] was determined as 4.2 mM.
